Counter-ions that a name gives are not always drawn.

The IC50 is the concentration at which inhibition is half-maximal.

For this test, the target named is T1, cloned rat PDE10A full-length enzyme (Rattus norvegicus, UniProt Q9QYJ6).
T1 construct: cloned rat PDE10A full-length enzyme grown in transfected Sf9 insect cells; made in house; host or cells: Sf9 insect cells
T1 sequence (Q9QYJ6 1-794): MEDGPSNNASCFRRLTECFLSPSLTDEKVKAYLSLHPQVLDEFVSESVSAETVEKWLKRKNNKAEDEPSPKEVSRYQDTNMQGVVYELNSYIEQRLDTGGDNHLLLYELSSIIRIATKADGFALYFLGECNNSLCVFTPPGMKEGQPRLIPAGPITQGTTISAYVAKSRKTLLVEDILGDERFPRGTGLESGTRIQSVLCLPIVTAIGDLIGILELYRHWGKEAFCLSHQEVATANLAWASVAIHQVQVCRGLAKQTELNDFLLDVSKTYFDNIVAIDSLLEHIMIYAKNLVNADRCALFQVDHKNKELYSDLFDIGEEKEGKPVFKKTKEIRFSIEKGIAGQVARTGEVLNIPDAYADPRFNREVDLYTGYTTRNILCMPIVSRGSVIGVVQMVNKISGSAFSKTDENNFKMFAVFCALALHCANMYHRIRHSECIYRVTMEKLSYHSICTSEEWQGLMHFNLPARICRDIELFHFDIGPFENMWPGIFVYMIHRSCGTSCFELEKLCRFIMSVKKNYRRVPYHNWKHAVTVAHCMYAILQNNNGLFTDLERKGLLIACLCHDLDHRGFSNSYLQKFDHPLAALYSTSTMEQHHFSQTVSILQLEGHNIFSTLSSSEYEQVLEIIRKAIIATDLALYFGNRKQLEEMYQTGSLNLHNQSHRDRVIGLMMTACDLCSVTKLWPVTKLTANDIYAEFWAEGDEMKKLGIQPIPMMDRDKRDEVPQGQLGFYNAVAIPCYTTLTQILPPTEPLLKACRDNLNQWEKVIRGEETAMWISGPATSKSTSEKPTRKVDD
Kind of test: PDE10 enzyme inhibition, [3H]cAMP scintillation proximity assay. Format: biochemical. To be noted: rat PDE10A from Sf9 cells, 20 nM [3H]cAMP, SPA beads, 20 minute incubation at room temperature. How it is done: Compounds of the present invention were evaluated for ability to inhibit PDE10 enzyme with the following Assay procedure
The enzyme used in the procedure was cloned rat PDE10A full-length enzyme grown in transfected Sf9 insect cells. Cloned enzyme was extracted from homogenized cell pellets and stored frozen in homogenizing buffer until use. Compounds were initially dissolved in 100% DMSO and diluted out in 20 percent DMSO/water solution. Final concentration of DMSO in the assay was 2 percent as compounds were tested in triplicate in 96 well plates. Compound solution was placed in well, then tritiated cyclic AMP (New England Nuclear NET275) in assay buffer was added at 20 nM concentration. Then PDE10 enzyme in assay buffer of 50 mM Tris, 8.3 mM MgCl2, pH 7.5 at room temperature was added for a final assay volume of 100 ul. Concentration of enzyme was added such that less than 10 percent of [3H]cAMP at 20 nM was converted to detectable end product, [3H]AMP bound to SPA (Scintillation Proximity Assay) beads. Phosphodiesterase scintillation proximity yttrium silicate beads from Amersham Biosciences (RPNQ0150) were added (50 ul at 20 mg/ml) after a 20 minute incubation at room temperature. Zinc sulphate as a component of the beads stops the phosphodiesterase reaction.
Non-specific binding to SPA beads was determined by addition of 1 uM papaverine. Total conversion by enzyme without inhibitor of [3H]cAMP to [3H]AMP, as detected by scintillation of [3H]AMP bound to yttrium silicate beads, was determined in the presence of vehicle-only.
Background: SPA uses beads or plates that emit light when radiolabelled molecules are held near them.
For “3-(4-(5-(4-methoxyphenyl)-2-(thiophen-2-yl)-1H-imidazol-4-yl)phenyl)-3H-imidazol[4,5-b]pyridine and 1-(4-(5-(4-methoxyphenyl)-2-(thiophen-2-yl)-1H-imidazo[4,5-b]pyridine [Example 101]”, the IC50 was 0.708 nM.

`c1ccc(-c2cn(-c3cccnc3)c(-c3ccc(-n4cnc5ncccc54)cc3)n2)nc1` (single isomer, unassigned) [Example 46, 1-(4-(4-(pyridin-2-yl)-1-(pyridin-3-yl)-1H-imidazol-2-yl)phenyl)-1H-imidazo[4,5-b]pyridine bis-trifluororoacetic acid salt] displayed an IC50 of 231 nM.

Take `Cc1ccc(-n2cc(-c3ccccn3)nc2-c2ccc(-n3cnc4ncccc43)cc2)cn1` (single isomer, unassigned) [Example 48]: 63.7 nM corresponded to half-maximal inhibition (IC50).

As to `Cc1ccc(-n2cc(-c3ccccn3)nc2-c2ccc(-n3cnc4cccnc43)cc2)cn1` (single isomer, unassigned) [Example 49, 3-(4-(1-(6-methylpyridin-3-yl)-4-(pyridin-2-yl)-1H-imidazol-2-yl)phenyl)-3H-imidazo[4,5-b]pyridine], the IC50 amounted to 5.5 nM.

Regarding `COc1ccc(-n2cc(-c3cccs3)nc2-c2ccc(-n3ccc4cccnc43)cc2)cc1` [Example 1], the IC50 is 3.35 nM.

As for `COc1ccc(-n2cc(-c3nccs3)nc2-c2ccc(-n3ccc4cccnc43)cc2)cc1` [Example 2, 1-(4-(1-(4-methoxyphenyl)-4-(thiazol-2-yl)-1H-imidazol-2-yl)phenyl)-1H-pyrrolo[2,3-b]pyridine], the IC50 was 156 nM.

`c1cnc2c(c1)ccn2-c1ccc(-c2nc(-c3nccs3)cn2-c2nccs2)cc1` [Example 3, 1-(4-(1,4-di(thiazol-2-yl)-1H-imidazol-2-yl)phenyl)-1H-pyrrolo[2,3-b)pyridine] showed an IC50 of 1610 nM.

`c1ccc(-c2cn(-c3cncnc3)c(-c3ccc(-n4ccc5cccnc54)cc3)n2)nc1` [Example 4]: half-maximal inhibition (IC50) was put at 13.6 nM.

`Cc1cc(-n2cc(-c3ccccn3)nc2-c2ccc(-n3ccc4cccnc43)cc2)ccn1` [Example 5, 1-(4-(1-(2-methylpyridin-4-(pyridin-2-yl)-1H-imidazol-2-yl)-1H-imidazol-2-yl)phenyl)-1H-pyrrolo[2,3-b]pyridine] showed an IC50 of 4.62 nM.

The molecule `Cc1ccc(-n2cc(-c3ccccn3)nc2-c2ccc(-n3ccc4cccnc43)cc2)cn1` [Example 6, 1-(4-(1-(6-methylpyridine-3-yl)-4-(pyridin-2-yl)-1H-imidazol-2-yl)phenyl)-1H-pyrrolo[2,3-b]pyridine] registered an IC50 of 3.21 nM.

Turning to `c1ccc(-c2cn(-c3ccc(-n4ccnc4)nc3)c(-c3ccc(-n4ccc5cccnc54)cc3)n2)nc1` [Example 8, 1-(4-(1-(6-(1H-imidazol-1-yl)pyridin-3-yl)-4-(pyridin-2-yl)-1H-imidazol-2-yl)phenyl)-1-H-pyrrolo[2,3-b]pyridine], inhibition was half-maximal at 1.48 nM (IC50).

`COc1ccc(-n2cc(-c3ccccn3)nc2-c2ccc(-n3ccc4cccnc43)cc2)cn1` [Example 9, 1-(4-(1-(6-methoxypyridin-3-yl)-4-(pyridin-2-yl)-1H-imidazol-2-yl)phenyl)-1H-pyrrolo[2,3-b]pyridine] registered an IC50 of 3.07 nM.

`CN(C)CCc1cn(-c2ccc(-c3nc(-c4ccccn4)cn3-c3cccnc3)cc2)c2ncccc12` [Example 10, N,N-dimethyl-2-(1-(4-(4-(pyridin-2-yl)-1-(pyridin-3-yl)-1H-imidazol-2-yl)phenyl)-1H-pyrrolo[2,3-b]pyridin-3-yl)ethanamine] displayed an IC50 of 8.99 nM.

Consider `Fc1cc(-n2ccc3cccnc32)ccc1-c1nc(-c2ccccn2)cn1-c1cccnc1` [Example 11, 1-(3-fluoro-4-(4-(pyridin-2-yl)-1-(pyridin-3-yl)-1H-imidazol-2-yl)phenyl)-1H-pyrrolo[2,3-b]pyridine], for which the IC50 was 4.14 nM.

The molecule `Cc1ccc(-n2cc(-c3ccccn3)nc2-c2ccc(-n3ccc4cccnc43)c(C)c2)cn1` [Example 12, 1-(2-methyl-4-(1-(6-methylpyridin-3-yl)-4-(pyridin-2-yl)-1H-imidazol-2-yl)phenyl)-1H-pyrrolo[2,3-b]pyridine] had an IC50 of 31.7 nM.

Consider `Cc1ccc(-n2cc(-c3ccccn3)nc2-c2ccc(-n3ccc4cccnc43)cc2C)cn1` [Example 13, 1-(3-methyl-4-(1-(6-methylpyridin-3-yl)-4-(pyridin-2-yl)-1H-imidazol-2-yl)phenyl)-1H-pyrrolo[2,3-b]pyridin], for which the IC50 is 37.1 nM.

Consider `Cc1ccc(-n2cc(-c3cccc[n+]3[O-])nc2-c2ccc(-n3ccc4cccnc43)cc2)c[n+]1[O-]` [Example 15], for which the IC50 was 16.4 nM.

`Cc1ccc(-n2cc(-c3cccc[n+]3[O-])nc2-c2ccc(-n3ccc4cccnc43)cc2)cn1` [Example 16, 1-(4-(1-(6-methylpyridin-3-yl)-4-(1-oxido-pyridin-2-yl)-1H-imidazol-2-yl)phenyl)-1H-pyrrolo[2,3-b]pyridine] showed an IC50 of 12.3 nM.

For `c1ccc(-c2cn(-c3cccnc3)c(-c3ccc(-n4c5c(c6cccnc64)CSCC5)cc3)n2)nc1` [Example 17, 9-[4-(4-pyridin-2-yl-1-pyridin-3-yl-1H-imidazol-2-yl)phenyl]-5,7,8,9-tetrahydrothiopyrano[3′,4′,4,5]pyrrolo[2,3-b]pyridine], the midpoint of inhibition, the IC50, lay at 0.912 nM.

`CN(C)Cc1cn(-c2ccc(-c3nc(-c4ccccn4)cn3-c3cccnc3)cc2)c2ncccc12` [Example 18, N,N-dimethyl(1-(4-(4-(pyridin-2-yl)-1-(pyridin-3-yl)-1H-imidazol-2-yl)phenyl)-1H-pyrrolo[2,3-b]pyridin-3-yl)methanamine TFA salt] came in with an IC50 of 24.3 nM.

The molecule `c1ccc(-c2cn(-c3cccnc3)c(-c3ccc(-n4c5ccccc5c5cccnc54)cc3)n2)nc1` [Example 19, 9-(4-(4-(pyridin-2-yl)-1-(pyridin-3-yl)-1H-imidazol-2-yl)phenyl)-9H-pyrido[2,3-b]indole] had an IC50 of 0.992 nM.

On to `Cc1ccc(-n2cc(-c3ccccn3)nc2-c2ccc(-n3ccc4cc(Cl)cnc43)cc2)cn1` [Example 20, 5-chloro-1-(4-(4-pyridin-2-yl)-1-(6-methylpyridin-3-yl-1H-imidazol-2-yl)phenyl)-1H-pyrrolo[2,3-b]pyridine], for which the IC50 is under 2.72 nM.

`Cc1ccc(-n2cc(-c3ccccn3)nc2-c2ccc(-n3ccc4cc(F)cnc43)cc2)cn1` [Example 21, 5-fluoro-1-(4-(1-(6-methylpyridin-3-yl)-4-(pyridin-2x-yl)-1H-imidazol-2-yl)phenyl)-1H-pyrrolo-[2,3-b]pyridine] displayed an IC50 of 2.82 nM.

`Cc1cnc2c(ccn2-c2ccc(-c3nc(-c4ccccn4)cn3-c3ccc(C)nc3)cc2)c1` [Example 22, 5-methyl-1-(4-(1-[6-methylpyridin-3-yl)-4-(pyridin-2-yl)-1H-imidazol-2-yl)phenyl)-1H-pyrrolo[2,3-b]pyridine] had an IC50 of 12.1 nM.

As to `C#Cc1cc(C)cnc1N` [Example 22A, 3-ethynyl-5-methylpyridin-2-amine], half-maximal inhibition (IC50) required 3.35 nM.

For `c1ccc(-n2cc(-c3nccs3)nc2-c2ccc(-n3ccc4cccnc43)cc2)nc1` [Example 24], it took 13.4 nM to reach half-maximal inhibition (IC50).

`c1cnc2c(c1)ccn2-c1ccc(-c2nc(-c3nccs3)cn2-c2ccncc2)cc1` [Example 25, 1-(4-(1-(pyridin-4-yl)-4-(thiazol-2-yl)-1H-imidazol-2-yl)phenyl)-1H-pyrrolo[2,3-b]pyridine] came in with an IC50 of 4.46 nM.

Source of the values: US20080090834A1, “SELECTIVE AZOLE PDE10A INHIBITOR COMPOUNDS” (Pfizer Inc, priority 2006, published 2008).
